The values that follow come from patent US11000033B2, “Ketone or oxime compound, and herbicide” (NISSAN CHEMICAL CORPORATION, priority 2014, dated 2021).

Holding throughout (assay type): in vivo
Common to all, as to conditions: application herbicide amount 320 g/ha

Data set [1] deals with Echinochloa crus-galli var. crus-galli. The data set can be described thus: Test Example 3: herbicidal effect by foliage application, Wagner pot (symbol H). The method, then: (§1) Herbicidal Effect Test by Foliage Application
(§2) After alluvial soil was placed into 1/10000 are of Wagner pot, water was poured and mixed to form a submerged condition having a water depth of 0.1 cm to 0.5 cm. Seeds of Echinochloa crus-galli var. crus-galli, Leptochloa chinensis, Cyperus difformis, and rice were sowed and the pot was placed in the greenhouse of 25° C. to 30° C. to grow the plants. After the plants were grown for 14 days, the emulsion agent of the compound of the present invention prepared in accordance with Formulation Example 2 was diluted with water so as to be a predetermined herbicide amount and the diluted emulsion agent was uniformly applied to a foliage part with a small-size spray. 3 weeks later from the herbicide application, the effect to each plant was investigated in accordance with the criteria of Test Example 1.

A further data set has as its system Leptochloa chinensis. The data set can be described thus: Test Example 3: herbicidal effect by foliage application, Wagner pot (symbol D). The protocol: as §1, §2
Another data set has as its system Cyperus difformis. Nature of the data set: Test Example 3: herbicidal effect by foliage application, Wagner pot (symbol E). The protocol:
as §1, §2

Data set [2] deals with directly sowed rice plant. Nature of the data set: Test Example 3: effect on crop by foliage application, Wagner pot (symbol b). The method, then: as §1
After alluvial soil was placed into 1/10000 are of Wagner pot, water was poured and mixed to form a submerged condition having a water depth of 0.1 cm to 0.5 cm. Seeds of Echinochloa crus-galli var. crus-galli, Leptochloa chinensis, Cyperus difformis, and rice were sowed and the pot was placed in the greenhouse of 25° C. to 30° C. to grow the plants.

The subject of data set [3] is Echinochloa oryzacola Vasing. The data set can be described thus: Test Example 1: herbicidal activity, application before weed generation in submerged conditions (symbol A). An excerpt:
(§3) Herbicidal Activity Test by Application Before Weed Generation in Submerged Conditions
(§4) After alluvial soil was placed into 1/10000 are of Wagner pot, water was poured and mixed to form a submerged condition having a water depth of 4 cm. Seeds of Echinochloa oryzacola Vasing., Scirpus juncoides, and Monochoria vaginalis were sowed in a mixed manner in the above pot and thereafter 2.5 leaf stage rice plant seedlings were transplanted thereto. On the day of sowing seeds, the emulsion agent of the compound of the present invention prepared in accordance with Formulation Example 2 was diluted with water so as to be a predetermined herbicide amount and the diluted emulsion agent was applied to the surface of the water. The pot was placed in a greenhouse of 25° C. to 30° C. to grow plant. 3 weeks later from the herbicide application, the effect to each plant was investigated in accordance with the following criteria.
(§5) 5 Herbicidal ratio of 90% or more (almost completely withered)
(§6) 4 Herbicidal ratio of 70% or higher and lower than 90%
(§7) 3 Herbicidal ratio of 40% or higher and lower than 70%
(§8) 2 Herbicidal ratio of 20% or higher and lower than 40%
(§9) 1 Herbicidal ratio of 5% or higher and lower than 20%
(§10) 0 Herbicidal ratio of 5% or lower (almost no effect)

A further data set deals with Scirpus juncoides. Nature of the data set: Test Example 1: herbicidal activity, application before weed generation in submerged conditions (symbol B).
Excerpt: as §3, §4, §5, §6, §7, §8, §9, §10

A further data set relates to Monochoria vaginalis. The data set can be described thus: Test Example 1: herbicidal activity, application before weed generation in submerged conditions (symbol C).
Excerpt: as §3, §4, §5, §6, §7, §8, §9, §10

In another data set the test system is transplanted rice plant. Nature of the data set: Test Example 1: effect on crop, application before weed generation in submerged conditions (symbol a). The protocol: as §3
After alluvial soil was placed into 1/10000 are of Wagner pot, water was poured and mixed to form a submerged condition having a water depth of 4 cm. Seeds of Echinochloa oryzacola Vasing., Scirpus juncoides, and Monochoria vaginalis were sowed in a mixed manner in the above pot and thereafter 2.5 leaf stage rice plant seedlings were transplanted thereto. […] The pot was placed in a greenhouse of 25° C. to 30° C. to grow plant. 3 weeks later from the herbicide application, the effect to each plant was investigated in accordance with the following criteria.
as §5, §6, §7, §8, §9, §10

Take `COC(=O)C(C(C)=O)C1CC(O)=C(c2c(F)cc(Br)cc2OC)C1=O` (stereo not drawn) [7-028]: the “H (Echinochloa crus-galli var. crus-galli) herbicidal effect grade” value in data set [1] (Table 24) was 0 (Herbicidal ratio of 5% or lower (almost no effect)). Further, the “D (Leptochloa chinensis) herbicidal effect grade” value with Leptochloa chinensis (Table 24) is given as 0 (Herbicidal ratio of 5% or lower (almost no effect)). The “E herbicidal effect grade” value in the data set with Cyperus difformis (Table 24) is reported as 0 (Herbicidal ratio of 5% or lower (almost no effect)). Moreover, in data set [2] (Table 24), the “b (directly sowed rice plant) effect on crop grade” value is listed as 0 (Herbicidal ratio of 5% or lower (almost no effect)).

Regarding `CON=C(C)CC1CC(O)=C(c2c(C)cc(OCc3ccncc3)cc2C)C1=O` (stereo not drawn) [6-070], the “herbicidal effect on H (Echinochloa crus-galli var. crus-galli), grade 0-5” value (shortened to “herbicidal effect on H”) in data set [1] is given as 0 (Herbicidal ratio of 5% or lower (almost no effect)). The “herbicidal effect on D (Leptochloa chinensis), grade 0-5” value (“herbicidal effect on D” for short) with Leptochloa chinensis is 4 (Herbicidal ratio of 70% or higher and lower than 90%). The “herbicidal effect on E, grade 0-5” value in the data set on Cyperus difformis was 0 (Herbicidal ratio of 5% or lower (almost no effect)). Further, the “effect on crop b (directly sowed rice plant), grade 0-5” value (from here on “effect on crop b”) in data set [2] is on record as 0 (Herbicidal ratio of 5% or lower (almost no effect)).

On to `CC(=O)CC1CC(O)=C(c2c(C)cc(OCc3ccncc3)cc2C)C1=O` (stereo not drawn) [7-021], for which the “herbicidal effect on H” value in data set [1] was 2 (Herbicidal ratio of 20% or higher and lower than 40%). Further, in the data set with Leptochloa chinensis, the “herbicidal effect on D” value was 2 (Herbicidal ratio of 20% or higher and lower than 40%). In the data set with Cyperus difformis, the “herbicidal effect on E, grade 0-5” value is on record as 0 (Herbicidal ratio of 5% or lower (almost no effect)). The “effect on crop b” value in data set [2] is given as 0 (Herbicidal ratio of 5% or lower (almost no effect)).

For `CON=C(CC1CC(O)=C(c2c(C)cc(C)cc2C)C1=O)c1ccc(C)cc1` (stereo not drawn) [1-164], the “herbicidal effect on H” value in data set [1] is 2 (Herbicidal ratio of 20% or higher and lower than 40%). In addition, the “herbicidal effect on D” value in the data set with Leptochloa chinensis was 3 (Herbicidal ratio of 40% or higher and lower than 70%). Further, the “herbicidal effect on E, grade 0-5” value with Cyperus difformis was 0 (Herbicidal ratio of 5% or lower (almost no effect)). In addition, the “effect on crop b” value in data set [2] is 4 (Herbicidal ratio of 70% or higher and lower than 90%).

In the case of `CON=C(C)CC1CC(OC(=S)N(C)C)=C(c2c(C)cc(C)cc2C)C1=O` (stereo not drawn) [1-141], the “herbicidal effect on H” value in data set [1] was 2 (Herbicidal ratio of 20% or higher and lower than 40%). For the same compound, in the data set on Leptochloa chinensis, the “herbicidal effect on D” value is given as 0 (Herbicidal ratio of 5% or lower (almost no effect)). Moreover, the “effect on crop b” value in data set [2] was 1 (Herbicidal ratio of 5% or higher and lower than 20%).

Consider `CON=C(CCl)CC1CC(OC)=C(c2c(C)cc(C)cc2C)C1=O` (stereo not drawn) [1-077], for which the “Herbicidal effect grade, A: Echinochloa oryzacola Vasing.” value in data set [3] is 1 (Herbicidal ratio of 5% or higher and lower than 20%). The “Herbicidal effect grade, B: Scirpus juncoides” value in the data set on Scirpus juncoides was 2 (Herbicidal ratio of 20% or higher and lower than 40%). The “Herbicidal effect grade, C: Monochoria vaginalis” value in the data set with Monochoria vaginalis is 0 (Herbicidal ratio of 5% or lower (almost no effect)). Besides, in the data set on transplanted rice plant, the “Effect grade on crop, a: transplanted rice plant” value was 1 (Herbicidal ratio of 5% or higher and lower than 20%).

`CON=C(CCl)CC1CC(O)=C(c2c(C)cc(C)cc2C)C1=O` (stereo not drawn) [1-084]: the “herbicidal effect on H” value in data set [1] is 2 (Herbicidal ratio of 20% or higher and lower than 40%). Besides, the “herbicidal effect on D” value in the data set on Leptochloa chinensis is 0 (Herbicidal ratio of 5% or lower (almost no effect)). For the same compound, in the data set on Cyperus difformis, the “herbicidal effect on E, grade 0-5” value is 0 (Herbicidal ratio of 5% or lower (almost no effect)). In data set [2], the “effect on crop b” value is 1 (Herbicidal ratio of 5% or higher and lower than 20%).

Take `CON=C(C)CC1CC(OC(=O)N(c2ccccc2)c2ccccc2)=C(c2c(C)cc(C)cc2C)C1=O` (stereo not drawn) [1-157]: the “herbicidal effect on H” value in data set [1] is given as 0 (Herbicidal ratio of 5% or lower (almost no effect)). For the same compound, the “herbicidal effect on D” value with Leptochloa chinensis is 4 (Herbicidal ratio of 70% or higher and lower than 90%). Moreover, in data set [2], the “effect on crop b” value was 0 (Herbicidal ratio of 5% or lower (almost no effect)).
